How the values were obtained:
Cyclooxygenase = Cyclooxygenase (Homo sapiens, UniProt P35354+P23219); assay: In vitro inhibition of Prostaglandin G/H synthase from human polymorphs; assay type: protein assay
[1] = target: T1, Polyunsaturated fatty acid 5-lipoxygenase (Homo sapiens, UniProt P09917); assay: In vitro inhibition of 5-lipoxygenase from human polymorphs
T1 sequence (P09917 whole entry): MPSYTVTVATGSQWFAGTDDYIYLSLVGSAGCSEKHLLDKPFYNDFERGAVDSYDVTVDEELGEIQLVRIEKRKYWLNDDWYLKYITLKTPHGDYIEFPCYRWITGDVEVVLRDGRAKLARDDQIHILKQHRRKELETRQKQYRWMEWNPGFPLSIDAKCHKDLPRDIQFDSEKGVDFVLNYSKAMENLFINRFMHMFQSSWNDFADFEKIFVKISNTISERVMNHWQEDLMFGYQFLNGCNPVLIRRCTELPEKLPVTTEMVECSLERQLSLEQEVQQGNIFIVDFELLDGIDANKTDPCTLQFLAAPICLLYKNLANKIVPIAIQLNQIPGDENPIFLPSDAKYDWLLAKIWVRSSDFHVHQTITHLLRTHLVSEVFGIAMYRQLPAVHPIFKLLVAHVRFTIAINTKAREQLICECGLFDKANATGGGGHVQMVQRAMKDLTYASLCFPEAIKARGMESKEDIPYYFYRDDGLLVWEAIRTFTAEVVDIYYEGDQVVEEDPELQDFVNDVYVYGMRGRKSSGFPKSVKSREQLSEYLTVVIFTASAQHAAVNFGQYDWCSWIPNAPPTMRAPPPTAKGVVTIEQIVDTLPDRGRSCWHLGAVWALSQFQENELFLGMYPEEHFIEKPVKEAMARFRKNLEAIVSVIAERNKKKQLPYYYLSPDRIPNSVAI

CC(=O)N(O)C/C=C/c1cccc(Oc2ccccc2)c1
IC50 (Cyclooxygenase): 3200 nM

CC(=O)N(O)Cc1ccc(OCc2ccccc2)cc1
IC50 [1]: 770 nM | IC50 (Cyclooxygenase): 22000 nM

CN(O)C(=O)/C=C/c1cccc(Oc2ccccc2)c1
IC50 [1]: 50 nM | IC50 (Cyclooxygenase): 5000 nM

— ChEMBL document CHEMBL1124047, “Acetohydroxamic acids as potent, selective, orally active 5-lipoxygenase inhibitors” (J Med Chem, 1988)
